Where two headings read alike, the source gives them in different places.
Experiments:
Experiment in all cases: TGFα-shedding assay-based GPCR screening with chimeric Gα subunit proteins
Type in all cases: cell-based
348 GPCRs [1] = biological target: T1, 348 GPCRs (Homo sapiens, UniProt Q15391)
T1 construct: expressed in transfected cells; host or cells: HEK293A
T1 sequence (Q15391 1-338): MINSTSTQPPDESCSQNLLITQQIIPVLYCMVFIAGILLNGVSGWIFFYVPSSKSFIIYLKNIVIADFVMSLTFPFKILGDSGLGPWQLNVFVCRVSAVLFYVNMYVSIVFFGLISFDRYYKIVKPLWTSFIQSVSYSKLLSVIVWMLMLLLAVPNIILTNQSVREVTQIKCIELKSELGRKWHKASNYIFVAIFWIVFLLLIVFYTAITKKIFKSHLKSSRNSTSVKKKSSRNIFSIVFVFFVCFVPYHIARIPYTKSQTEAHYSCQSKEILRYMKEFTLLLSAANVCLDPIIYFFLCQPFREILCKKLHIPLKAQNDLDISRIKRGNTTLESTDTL

348 GPCRs [2] = biological target: T2, 348 GPCRs (Homo sapiens, UniProt P04001); conditions: 10µM, Favipiravir 100μM
T2 construct: expressed in transfected cells; host or cells: HEK293A
T2 sequence (P04001 1-364): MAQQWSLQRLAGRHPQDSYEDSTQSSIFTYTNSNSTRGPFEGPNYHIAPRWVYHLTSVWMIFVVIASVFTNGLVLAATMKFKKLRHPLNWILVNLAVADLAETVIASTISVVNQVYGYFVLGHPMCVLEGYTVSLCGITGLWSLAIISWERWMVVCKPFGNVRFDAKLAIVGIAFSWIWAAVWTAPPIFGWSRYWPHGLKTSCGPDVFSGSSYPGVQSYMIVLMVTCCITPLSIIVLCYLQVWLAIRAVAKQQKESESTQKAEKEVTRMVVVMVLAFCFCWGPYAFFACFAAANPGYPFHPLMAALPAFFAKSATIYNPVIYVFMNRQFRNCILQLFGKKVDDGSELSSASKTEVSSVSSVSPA

348 GPCRs [3] = biological target: T3, 348 GPCRs (Homo sapiens, UniProt O00155); conditions: 10µM, Favipiravir 100μM
T3 construct: expressed in transfected cells; host or cells: HEK293A

348 GPCRs [4] = biological target: T4, 348 GPCRs (Homo sapiens, UniProt P43088); conditions: 10µM, Favipiravir 100μM
T4 construct: expressed in transfected cells; host or cells: HEK293A

348 GPCRs [5] = biological target: T5, 348 GPCRs (Homo sapiens, UniProt Q9NYW1); conditions: 10µM, Favipiravir 100μM
T5 construct: expressed in transfected cells; host or cells: HEK293A
T5 sequence (Q9NYW1 1-312): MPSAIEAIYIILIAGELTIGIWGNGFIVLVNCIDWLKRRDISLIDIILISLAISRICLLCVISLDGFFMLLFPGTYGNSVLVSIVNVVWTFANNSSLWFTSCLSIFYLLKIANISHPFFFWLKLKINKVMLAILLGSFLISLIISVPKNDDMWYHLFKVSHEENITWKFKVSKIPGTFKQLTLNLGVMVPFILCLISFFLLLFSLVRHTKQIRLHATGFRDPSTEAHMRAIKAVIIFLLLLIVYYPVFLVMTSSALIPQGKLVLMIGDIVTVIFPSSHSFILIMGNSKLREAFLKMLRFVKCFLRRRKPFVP

348 GPCRs [6] = biological target: T6, 348 GPCRs (Homo sapiens, UniProt P51685); conditions: 10µM, Favipiravir 100μM
T6 construct: expressed in transfected cells; host or cells: HEK293A

348 GPCRs [7] = biological target: T7, 348 GPCRs (Homo sapiens, UniProt Q9BXC1); conditions: 10µM, Favipiravir 100μM
T7 construct: expressed in transfected cells; host or cells: HEK293A

348 GPCRs [8] = biological target: 348 GPCRs (Homo sapiens, UniProt P32745); conditions: 10µM, Favipiravir 100μM
348 GPCRs [9] = biological target: 348 GPCRs (Homo sapiens, UniProt P41146); conditions: 10µM, Favipiravir 100μM
348 GPCRs [10] = biological target: T8, 348 GPCRs (Homo sapiens, UniProt P49286); conditions: 10µM, Favipiravir 100μM
T8 construct: expressed in transfected cells; host or cells: HEK293A
T8 sequence (P49286 1-362): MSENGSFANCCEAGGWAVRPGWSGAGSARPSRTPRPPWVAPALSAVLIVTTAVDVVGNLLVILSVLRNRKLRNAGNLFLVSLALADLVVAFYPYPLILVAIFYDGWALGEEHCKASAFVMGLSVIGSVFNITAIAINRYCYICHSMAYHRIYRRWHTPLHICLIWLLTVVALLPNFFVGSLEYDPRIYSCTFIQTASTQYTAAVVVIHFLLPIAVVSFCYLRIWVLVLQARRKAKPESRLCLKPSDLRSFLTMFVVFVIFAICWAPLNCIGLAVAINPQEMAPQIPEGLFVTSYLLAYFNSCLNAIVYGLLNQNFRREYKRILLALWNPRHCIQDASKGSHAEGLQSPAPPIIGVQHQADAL

348 GPCRs [11] = biological target: 348 GPCRs (Homo sapiens, UniProt P25103); conditions: 10µM, Favipiravir 100μM
[12] = GPCR P2Y14 (purinergic receptor P2Y, G-protein coupled, 14), read-out: % GPCR activation compared to TPA
[13] = OPN1MW (opsin 1 (cone pigments), medium-wave-sensitive), read-out: % GPCR activation compared to TPA
[14] = GPR25 (G Protein-Coupled Receptor 25), read-out: % GPCR activation compared to TPA
[15] = FP (prostaglandin F receptor), read-out: % GPCR activation compared to TPA
[16] = TAS2R9 (taste receptor, type 2, member 9), read-out: % GPCR activation compared to TPA
[17] = CCR8 (C-C motif chemokine receptor 8), read-out: % GPCR activation compared to TPA
[18] = GPR174 (G-Protein Coupled Receptor 174), read-out: % GPCR activation compared to TPA
[19] = SSTR3 (somatostatin receptor 3), read-out: % GPCR activation compared to TPA
[20] = OPRL1 (opioid Related Nociceptin Receptor 1), read-out: % GPCR activation compared to TPA
[21] = MT2R (melatonin receptor type 1B), read-out: % GPCR activation compared to TPA
[22] = NK1 (tachykinin receptor 1), read-out: % GPCR activation compared to TPA
[23] = read-out: % GPCR activation compared to TPA, GPCR P2Y14 (purinergic receptor P2Y, G-protein coupled, 14)
[24] = read-out: % GPCR activation compared to TPA, OPN1MW (opsin 1 (cone pigments), medium-wave-sensitive)
[25] = read-out: % GPCR activation compared to TPA, GPR25 (G Protein-Coupled Receptor 25)
[26] = read-out: % GPCR activation compared to TPA, FP (prostaglandin F receptor)
[27] = read-out: % GPCR activation compared to TPA, TAS2R9 (taste receptor, type 2, member 9)
[28] = read-out: % GPCR activation compared to TPA, CCR8 (C-C motif chemokine receptor 8)
[29] = read-out: % GPCR activation compared to TPA, GPR174 (G-Protein Coupled Receptor 174)
[30] = read-out: % GPCR activation compared to TPA, SSTR3 (somatostatin receptor 3)
[31] = read-out: % GPCR activation compared to TPA, OPRL1 (opioid Related Nociceptin Receptor 1)
[32] = read-out: % GPCR activation compared to TPA, MT2R (melatonin receptor type 1B)
[33] = read-out: % GPCR activation compared to TPA, NK1 (tachykinin receptor 1)

T4 sequence (P43088 whole entry): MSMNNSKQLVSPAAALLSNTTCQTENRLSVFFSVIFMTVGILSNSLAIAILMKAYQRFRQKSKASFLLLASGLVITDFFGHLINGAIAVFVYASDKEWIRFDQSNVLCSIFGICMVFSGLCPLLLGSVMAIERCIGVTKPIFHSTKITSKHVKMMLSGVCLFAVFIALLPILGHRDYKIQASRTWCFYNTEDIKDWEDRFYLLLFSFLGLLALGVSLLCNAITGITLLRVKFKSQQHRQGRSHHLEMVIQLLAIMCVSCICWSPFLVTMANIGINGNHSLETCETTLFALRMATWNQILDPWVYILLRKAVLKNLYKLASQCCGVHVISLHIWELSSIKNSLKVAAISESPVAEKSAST
Sequence of 348 GPCRs (Homo sapiens, UniProt P32745) (P32745 whole entry): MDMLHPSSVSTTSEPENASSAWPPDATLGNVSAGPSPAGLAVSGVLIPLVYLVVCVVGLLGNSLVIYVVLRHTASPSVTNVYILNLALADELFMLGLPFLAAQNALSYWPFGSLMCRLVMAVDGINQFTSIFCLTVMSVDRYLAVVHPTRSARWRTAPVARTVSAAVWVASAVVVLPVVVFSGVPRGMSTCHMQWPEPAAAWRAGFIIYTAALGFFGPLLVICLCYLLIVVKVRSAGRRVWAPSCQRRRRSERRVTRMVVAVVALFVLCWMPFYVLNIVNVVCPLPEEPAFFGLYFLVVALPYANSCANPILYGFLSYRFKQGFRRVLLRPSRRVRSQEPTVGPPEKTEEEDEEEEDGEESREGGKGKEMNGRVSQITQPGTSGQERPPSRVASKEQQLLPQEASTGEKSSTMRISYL
T6 sequence (P51685 whole entry): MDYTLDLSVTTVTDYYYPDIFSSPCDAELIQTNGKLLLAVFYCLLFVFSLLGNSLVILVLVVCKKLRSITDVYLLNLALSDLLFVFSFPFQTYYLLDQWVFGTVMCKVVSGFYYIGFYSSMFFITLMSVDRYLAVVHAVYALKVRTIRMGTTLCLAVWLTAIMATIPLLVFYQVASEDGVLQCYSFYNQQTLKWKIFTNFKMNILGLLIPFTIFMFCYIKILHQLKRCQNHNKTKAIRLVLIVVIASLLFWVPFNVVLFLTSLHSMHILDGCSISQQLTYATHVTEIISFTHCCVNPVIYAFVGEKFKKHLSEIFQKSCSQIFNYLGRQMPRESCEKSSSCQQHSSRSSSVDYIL
Sequence of 348 GPCRs (Homo sapiens, UniProt P41146) (P41146 whole entry): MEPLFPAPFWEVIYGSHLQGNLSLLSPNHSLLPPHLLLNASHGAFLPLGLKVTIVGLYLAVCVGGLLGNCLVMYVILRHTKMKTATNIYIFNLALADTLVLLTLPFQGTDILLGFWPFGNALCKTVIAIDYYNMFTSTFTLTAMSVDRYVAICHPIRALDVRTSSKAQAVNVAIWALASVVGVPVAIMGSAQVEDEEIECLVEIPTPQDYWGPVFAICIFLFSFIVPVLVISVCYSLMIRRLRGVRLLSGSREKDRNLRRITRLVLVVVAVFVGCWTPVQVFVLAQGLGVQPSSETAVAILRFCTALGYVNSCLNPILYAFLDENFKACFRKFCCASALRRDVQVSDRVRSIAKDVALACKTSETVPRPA
T3 sequence (O00155 whole entry): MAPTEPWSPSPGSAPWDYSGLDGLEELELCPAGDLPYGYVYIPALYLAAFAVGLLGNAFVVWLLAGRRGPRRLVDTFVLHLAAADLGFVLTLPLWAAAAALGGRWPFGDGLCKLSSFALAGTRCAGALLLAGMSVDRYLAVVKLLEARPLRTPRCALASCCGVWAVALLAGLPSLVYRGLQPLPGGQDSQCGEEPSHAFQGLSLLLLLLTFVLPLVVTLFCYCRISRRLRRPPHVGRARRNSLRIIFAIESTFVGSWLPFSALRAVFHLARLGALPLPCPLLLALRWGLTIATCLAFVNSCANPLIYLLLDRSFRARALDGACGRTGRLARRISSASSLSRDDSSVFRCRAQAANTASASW
Sequence of 348 GPCRs (Homo sapiens, UniProt P25103) (P25103 whole entry): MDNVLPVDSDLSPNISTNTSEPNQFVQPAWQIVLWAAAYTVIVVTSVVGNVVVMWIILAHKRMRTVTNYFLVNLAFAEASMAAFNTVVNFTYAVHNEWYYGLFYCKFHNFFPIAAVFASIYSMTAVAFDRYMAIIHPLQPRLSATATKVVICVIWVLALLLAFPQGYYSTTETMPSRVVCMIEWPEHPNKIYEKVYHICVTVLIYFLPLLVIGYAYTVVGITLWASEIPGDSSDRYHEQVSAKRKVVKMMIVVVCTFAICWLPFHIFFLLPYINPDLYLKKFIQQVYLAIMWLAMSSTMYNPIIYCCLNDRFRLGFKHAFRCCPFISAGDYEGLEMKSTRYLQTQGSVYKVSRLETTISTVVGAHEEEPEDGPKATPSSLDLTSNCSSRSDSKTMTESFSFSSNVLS
T7 sequence (Q9BXC1 whole entry): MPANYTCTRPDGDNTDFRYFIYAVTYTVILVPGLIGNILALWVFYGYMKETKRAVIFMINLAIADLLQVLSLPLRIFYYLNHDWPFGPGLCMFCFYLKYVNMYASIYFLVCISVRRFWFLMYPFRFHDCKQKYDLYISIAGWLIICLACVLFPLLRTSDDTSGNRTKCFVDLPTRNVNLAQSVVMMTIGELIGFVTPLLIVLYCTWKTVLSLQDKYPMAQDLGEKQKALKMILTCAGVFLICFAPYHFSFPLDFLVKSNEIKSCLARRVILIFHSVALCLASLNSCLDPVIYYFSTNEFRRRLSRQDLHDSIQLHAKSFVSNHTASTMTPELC

Compound	activation at 10 µM (348 GPCRs [1]; [12]) [%]	activation at 100 µM (348 GPCRs [2]; [13]) [%]	activation at 100 µM (348 GPCRs [3]; [14]) [%]	activation at 10 µM (348 GPCRs [4]; [15]) [%]	activation at 10 µM (348 GPCRs [5]; [16]) [%]	activation at 10 µM (348 GPCRs [6]; [17]) [%]	activation at 100 µM (348 GPCRs [7]; [18]) [%]	activation at 10 µM (348 GPCRs [8]; [19]) [%]	activation at 10 µM (348 GPCRs [9]; [20]) [%]	activation at 10 µM (348 GPCRs [10]; [21]) [%]	activation at 10 µM (348 GPCRs [11]; [22]) [%]	activation at 10 µM (348 GPCRs [1]; [23]) [%]	activation at 100 µM (348 GPCRs [2]; [24]) [%]	activation at 100 µM (348 GPCRs [3]; [25]) [%]	activation at 10 µM (348 GPCRs [4]; [26]) [%]	activation at 10 µM (348 GPCRs [5]; [27]) [%]	activation at 10 µM (348 GPCRs [6]; [28]) [%]	activation at 100 µM (348 GPCRs [7]; [29]) [%]	activation at 10 µM (348 GPCRs [8]; [30]) [%]	activation at 10 µM (348 GPCRs [9]; [31]) [%]	further results
N#C[C@@]1(c2ccc3c(N)ncnn23)O[C@H](CO)[C@@H](O)[C@H]1O [GS441524]	4.97	-1.4	-1.73	0.154	0.686	-5.03	-2.64	3.54	-0.87	-2.97	-0.668	–	–	–	–	–	–	–	–	–	–
CCC(CC)COC(=O)[C@H](C)N[P@](=O)(OC[C@H]1O[C@@](C#N)(c2ccc3c(N)ncnn23)[C@H](O)[C@@H]1O)Oc1ccccc1 [remdesivir]	–	–	–	–	–	–	–	–	–	–	–	8.52	1.48	-2.29	1.47	1.69	0.425	1.12	3.89	-1.46	activation at 10 µM (348 GPCRs [10]; [32]): -2.11%; activation at 10 µM (348 GPCRs [11]; [33]): -0.867%
CC(C)OC(=O)[C@H](C)N[P@](=O)(OC[C@H]1O[C@@H](n2ccc(=O)[nH]c2=O)[C@](C)(F)[C@@H]1O)Oc1ccccc1 [sofosbuvir]	–	–	–	–	–	–	–	–	–	–	–	0.966	-1.41	-0.661	-2.66	-0.791	-2.89	-1.73	-1.81	0.297	activation at 10 µM (348 GPCRs [10]; [32]): -2.8%; activation at 10 µM (348 GPCRs [11]; [33]): -1.29%
NC(=O)c1nc(F)cnc1O [favipiravir, 6-fluoro-3-hydroxy-2-pyrazinecarboxamide]	–	-0.549	-2.15	0.208	2.37	-0.669	-2.2	1.41	-1.44	-4.78	-3.44	–	–	–	–	–	–	–	–	–	activation at 100 µM (348 GPCRs [1]; GPCR P2Y14 (purinergic receptor P2Y, G-protein coupled, 14), 100μM, read-out: % GPCR activation compared to TPA): 5.36%
CC(C)C(=O)OC[C@H]1O[C@@H](n2ccc(NO)nc2=O)[C@H](O)[C@@H]1O [molnupiravir]	0.0147	-0.857	-2.16	-0.35	0.0718	-2.68	-2	-1.25	-2.5	-1.78	1.66	–	–	–	–	–	–	–	–	–	–

Reference: article PMC10175918 (Communications Biology, 2023)
